Counter-ions that a name gives are not always drawn.
Tested on: rat liver microsome lipid peroxidation
Assay: Antioxidation action test in rat liver microsome (microsome lipid peroxidation measuring system, TBARS generation)
Format: biochemical
Conditions: for antioxidation action: microsome lipid peroxidation measuring system using a rat liver microsome, result in words; for IC50: rat liver microsome, NADPH 500 μM + ferrous sulfate 50 μM, 20 minutes reaction, 37° C., n=2, nonlinear regression, read-out: IC50 (TBARS generation suppressing action)
Experimental: 1. Antioxidation Action Test in Rat Liver Microsome
Using a microsome lipid peroxidation measuring system, an antioxidation action of a test compound was evaluated. This test quantifies a thiobarbituric acid reaction substance (TBARS) that is generated by a lipid peroxidation reaction caused by adding nicotinamide adenine dinucleotide phosphoric acid and ferrous sulfate to a microsome. To this system, a test compound is added, and a TBARS generation suppressing action by the test compound is evaluated as an antioxidation action. This method is a general method for measuring an antioxidation action of a compound or the like (Reference document: Yakugaku Zasshi 119, 93-99 (1999), Biochimica et Biophysics Acta, 1046, (1990) 207-213, Chemistry & Biology Experiment line 2, lipid peroxidation experimental method (Hirokawa shoten)).
A buffer solution was prepared by mingling to achieve 25 mM tris(hydroxymethyl)aminomethane (Tris) (pH 7.4) and 150 mM potassium chloride (KCl).
Ferrous sulfate (FeSO4.7H2O) was dissolved in distilled water to prepare a 5 mM solution.
Nicotinamide adenine dinucleotide phosphoric acid (NADPH) was dissolved in distilled water to prepare a 50 mM solution.
Ethylenediaminetetraacetic acid (EDTA) was dissolved in distilled water to prepare a 200 mM solution.
Five μL of a commercially available rat liver microsome [XENOTECH, catalog No. R1000 (20 mg protein/mL)] was used.
As a test compound, Compound A which is an inventive compound [1-[6-(4-cyclopropyl-1H-indazol-5-yl)pyridin-3-yl]-1-ethylenepropylamine hydrochloride (Example compound 2)], and Compound B having a similar compound structure [1-[6-(4-cyclopropyl-1H-indazol-5-yl)pyridin-3-yl]-1-methyl ethyl amine hydrochloride (synthesized according to a method described in European Patent Publication No. 1679308)] were used. Ten mM test compound solutions were prepared by dissolving 1.3 mg of Compound A in 0.315 mL of dimethyl sulfoxide (DMSO), and dissolving 2.15 mg of Compound B in 0.554 mL of dimethyl sulfoxide (DMSO).
[drawing 8] (Evaluation Method) 1) A test compound solution (5 μL) was put into a reaction tube. […] 7) A thiobarbituric acid reaction substance (TBARS) generation value in the reaction completed solution was measured using a commercially available TBARS measuring kit [Cayman, Catalog No. 10009055].
As a non-lipid peroxidation reaction group, a test was conducted by adding distilled water in place of nicotinamide adenine dinucleotide phosphoric acid and ferrous sulfate, and a TBARS generation value was measured. The number of examples of each group is n=2, and the TBARS generation suppressing rate (%) was calculated from an average value of n=2 according to the following formula 1, and IC50 of the test compound was measured by nonlinear regression of statistical analysis software (EXSAS). […]

| Compound | antioxidation action | IC50 |
| --- | --- | --- |
| CCC(N)(CC)c1ccc(-c2ccc3[nH]ncc3c2C2CC2)nc1 [Compound A, 1-[6-(4-cyclopropyl-1H-indazol-5-yl)pyridin-3-yl]-1-ethylpropylamine hydrochloride] | exhibited a strong antioxidation action | 3.8 µM |
| CC(C)(N)c1ccc(-c2ccc3[nH]ncc3c2C2CC2)nc1 [Compound B, 1-[6-(4-cyclopropyl-1H-indazol-5-yl)pyridin-3-yl]-1-methyl ethyl amine hydrochloride] | did not exhibit a strong antioxidation action | > 100 µM |

Reference: patent US8816092B2, “Indazole derivative or salt thereof and production intermediate thereof, and antioxidant using same, and use of indazole derivative or salt thereof” (Ube Industries, Ltd., priority 2010, dated 2014)
